Results from patent EP4603105A1, “PHARMACEUTICAL COMPOSITION CONTAINING CYCLIC COMPOUND HAVING SELECTIVE KRAS INHIBITORY EFFECT AGAINST HRAS AND NRAS” (CHUGAI SEIYAKU KABUSHIKI KAISHA, priority 2022, dated 2024).
pIC50, pKd: −log10 of the molar value.

Legend:
[1] = target: HRAS wild-type protein (Homo sapiens, UniProt P01112); assay: Binding to HRAS by surface plasmon resonance (SPR), KD and KD ratio to KRAS; details: ratio of KD for HRAS wild-type protein to KD for KRAS
Procedure, shortened: (§1)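 GDP-loaded biotinylated Avi-tag RAS proteins (E. coli-expressed) captured on a Biotin CAPture chip at ~100–300 RU; single-cycle kinetics at 30°C, 100 µL/min, 75 s injections of rising compound concentrations. HBS pH 7.4 running buffer with 1 mM DTT, 10 mM MgCl2, 10 µM GDP, 4% DMSO. KD from 1:1 binding fit.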

[2] = tested on: human lung cancer strain NCI-H441; format: cell-based
Procedure, shortened: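 Readout: […] after the ATP-based reagent. Compound: serial dilutions in dimethyl sulfoxide.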

[3] = target: GDP-bound NRAS wild-type protein (Homo sapiens, UniProt P01111); assay: Binding to NRAS by surface plasmon resonance (SPR), KD and KD ratio to KRAS; details: ratio of KD for GDP-bound NRAS wild-type protein to KD for KRAS
GDP-bound NRAS wild-type protein, sequence (P01111 whole entry): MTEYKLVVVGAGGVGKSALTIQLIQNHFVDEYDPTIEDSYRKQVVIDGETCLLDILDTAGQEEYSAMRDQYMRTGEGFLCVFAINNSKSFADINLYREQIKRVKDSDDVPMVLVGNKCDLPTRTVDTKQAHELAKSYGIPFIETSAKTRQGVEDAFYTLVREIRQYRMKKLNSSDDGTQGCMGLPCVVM
Procedure, shortened: as §1

[4] = target: GDP-bound KRAS wild-type protein (Homo sapiens, UniProt P01116); assay: Binding to KRAS by surface plasmon resonance (SPR), dissociation constant KD; details: Single Cycle Kinetics
GDP-bound KRAS wild-type protein, sequence (P01116 1-188 isoform P01116-2): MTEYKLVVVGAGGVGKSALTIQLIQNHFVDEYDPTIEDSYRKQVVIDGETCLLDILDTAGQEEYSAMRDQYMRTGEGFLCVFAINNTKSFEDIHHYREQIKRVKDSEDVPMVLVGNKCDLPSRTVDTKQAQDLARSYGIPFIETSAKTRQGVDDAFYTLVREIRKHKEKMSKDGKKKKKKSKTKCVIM
Procedure, shortened: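 SPR, 30°C: Avi-biotin RAS·GDP captured via Biotin CAPture (~100–300 RU); running buffer HBS pH 7.4, 1 mM DTT, 10 mM MgCl2, 0.01% Tween 20, 10 µM GDP, 4% DMSO. Single-cycle kinetics, 100 µL/min, 75 s injections; 1:1 model → KD.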

HRAS wild-type protein, sequence (P01112 whole entry): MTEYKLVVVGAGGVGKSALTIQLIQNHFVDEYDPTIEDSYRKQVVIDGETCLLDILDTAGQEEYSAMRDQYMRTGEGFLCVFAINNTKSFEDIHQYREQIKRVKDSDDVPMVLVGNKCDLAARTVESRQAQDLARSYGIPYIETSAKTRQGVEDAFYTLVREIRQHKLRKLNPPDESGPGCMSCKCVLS

SMILES	HRAS /KRAS [1]	pIC50 [2]	NRAS /KRAS [3]	pKd [4]
CCO[C@@H]1C[C@H]2C(=O)NC3(CCC3)C(=O)N(C)[C@@H](C3CCCC3)C(=O)N(C)[C@H](C(=O)N(C)C)CC(=O)N(C)[C@@H](CC)C(=O)N[C@@H]([C@@H](C)CC)C(=O)N(C)CC(=O)N(C)[C@H]3CCCCCN(C3=O)[C@@H](Cc3ccc4ccsc4c3)C(=O)N(C)CC(=O)N[C@@H](CCc3cc(F)c(C(F)(F)F)c(F)c3)C(=O)N2C1 [PP0910]	B (a compound having 3 or more and less than 10 is denoted as B)	7.18	B (a compound having 3 or more and less than 10 is denoted as B)	9.21
CCO[C@@H]1C[C@H]2C(=O)NC3(CCC3)C(=O)N(C)[C@@H](C3CCCC3)C(=O)N(C)[C@H](C(=O)N(C)C)CC(=O)N(C)[C@@H](CC)C(=O)N[C@@H]([C@@H](C)CC)C(=O)N(C)CC(=O)N(C)[C@H]3CCCCCN(C3=O)[C@@H](Cc3ccc(F)c(C)c3)C(=O)N(C)CC(=O)N[C@@H](CCc3cc(F)c(C(F)(F)F)c(F)c3)C(=O)N2C1 [PP0912]	B (a compound having 3 or more and less than 10 is denoted as B)	7.39	B (a compound having 3 or more and less than 10 is denoted as B)	9.49
CCO[C@@H]1C[C@H]2C(=O)NC3(CCC3)C(=O)N(C)[C@@H](C3CCCC3)C(=O)N(C)[C@H](C(=O)N(C)C)CC(=O)N(C)[C@@H](CC)C(=O)N[C@@H]([C@@H](C)CC)C(=O)N(C)CC(=O)N(C)[C@H]3CCCCCN(C3=O)[C@@H](Cc3nccs3)C(=O)N(C)CC(=O)N[C@@H](CCc3cc(F)c(C(F)(F)F)c(F)c3)C(=O)N2C1 [PP0913]	B (a compound having 3 or more and less than 10 is denoted as B)	6.69	B (a compound having 3 or more and less than 10 is denoted as B)	8.96
CCO[C@@H]1C[C@H]2C(=O)NC3(CCC3)C(=O)N(C)[C@@H](C3CCCC3)C(=O)N(C)[C@H](C(=O)N3CCOCC3)CC(=O)N(C)[C@@H](CC(C)C)C(=O)N[C@@H]([C@@H](C)CC)C(=O)N(C)CC(=O)N(C)[C@H]3CCCCCN(C3=O)[C@@H](Cc3ccc(F)c(F)c3)C(=O)N(C)CC(=O)N[C@@H](CCc3cc(F)c(C(F)(F)F)c(F)c3)C(=O)N2C1 [PP0917]	B (a compound having 3 or more and less than 10 is denoted as B)	7.60	B (a compound having 3 or more and less than 10 is denoted as B)	9.80
CCO[C@@H]1C[C@H]2C(=O)NC3(CCC3)C(=O)N(C)[C@@H](C3CCCC3)C(=O)N(C)[C@H](C(=O)N3CCOCC3)CC(=O)N(C)[C@@H](CC(C)C)C(=O)N[C@@H]([C@@H](C)CC)C(=O)N(C)CC(=O)N(C)[C@H]3CCCCCN(C3=O)[C@@H](Cc3nccs3)C(=O)N(C)CC(=O)N[C@@H](CCc3cc(F)c(C(F)(F)F)c(F)c3)C(=O)N2C1 [PP0923]	B (a compound having 3 or more and less than 10 is denoted as B)	6.35	B (a compound having 3 or more and less than 10 is denoted as B)	8.80
CCO[C@@H]1C[C@H]2C(=O)NC3(CCC3)C(=O)N(C)[C@@H](C3CCCC3)C(=O)N(C)[C@H](C(=O)N(C)C)CC(=O)N(C)[C@@H](Cc3ccccc3C)C(=O)N[C@@H]([C@@H](C)CC)C(=O)N(C)CC(=O)N(C)[C@H]3CCCCCN(C3=O)[C@@H](Cc3ccc(C(F)(F)F)cc3)C(=O)N(C)CC(=O)N[C@@H](CCc3cc(F)c(C(F)(F)F)c(F)c3)C(=O)N2C1 [PP0941]	B (a compound having 3 or more and less than 10 is denoted as B)	7.19	B (a compound having 3 or more and less than 10 is denoted as B)	8.92
CC[C@H](C)[C@@H]1NC(=O)[C@H](CC(C)C)N(C)C(=O)C[C@@H](C(=O)N2CCOCC2)N(CC)C(=O)[C@H](C2CCCC2)N(C)C(=O)C2(CCC2)NC(=O)[C@@H]2CC(F)(F)CN2C(=O)[C@H](CCc2cc(F)c(C(F)(F)F)c(F)c2)NC(=O)CN(C)C(=O)[C@H](Cc2ccc(C(F)(F)F)cc2)N2CCCCC[C@@H](C2=O)N(C)C(=O)CN(C)C1=O [PP0954]	A (a compound having 10 or more and less than 20 is denoted as A)	6.36	A (a compound having 10 or more and less than 20 is denoted as A)	8.12
CCO[C@@H]1C[C@H]2C(=O)NC(C)(C)C(=O)N(C)[C@@H](C3CCCC3)C(=O)N(CC)[C@H](C(=O)N3CCOCC3)CC(=O)N(C)[C@@H](CC(C)C)C(=O)N[C@@H]([C@@H](C)CC)C(=O)N(C)CC(=O)N(C)[C@H]3CCCCCN(C3=O)[C@@H](Cc3ccc(C(F)(F)F)cc3)C(=O)N(C)CC(=O)N[C@@H](CCc3cc(F)c(C(F)(F)F)c(F)c3)C(=O)N2C1 [PP0958]	B (a compound having 3 or more and less than 10 is denoted as B)	5.98	B (a compound having 3 or more and less than 10 is denoted as B)	8.12
CC[C@H](C)[C@@H]1NC(=O)[C@H](CC)N(C)C(=O)C[C@@H](C(=O)N2CCOCC2)N(C)C(=O)[C@H](C2CCCC2)N(C)C(=O)C2(CCCC2)NC(=O)[C@@H]2CCCN2C(=O)[C@H](CCc2ccc(C(F)(F)F)c(Cl)c2)NC(=O)CN(C)C(=O)[C@H](Cc2ccc(F)cc2)N2CCCCC[C@@H](C2=O)N(C)C(=O)CN(C)C1=O [PP0959]	B (a compound having 3 or more and less than 10 is denoted as B)	6.81	B (a compound having 3 or more and less than 10 is denoted as B)	9.41
CC[C@H](C)[C@@H]1NC(=O)[C@H](Cc2ccccc2)N(C)C(=O)C[C@@H](C(=O)N2CCOCC2)N(C)C(=O)[C@H](C2CCCC2)N(C)C(=O)C2(CCCC2)NC(=O)[C@@H]2CCCN2C(=O)[C@H](CCc2ccc(C(F)(F)F)c(Cl)c2)NC(=O)CN(C)C(=O)[C@H](Cc2ccc(F)cc2)N2CCCCC[C@@H](C2=O)N(C)C(=O)CN(C)C1=O [PP0961]	B (a compound having 3 or more and less than 10 is denoted as B)	7.27	B (a compound having 3 or more and less than 10 is denoted as B)	9.21
CC[C@H](C)[C@@H]1NC(=O)[C@H](Cc2cccc(F)c2)N(C)C(=O)C[C@@H](C(=O)N2CCOCC2)N(C)C(=O)[C@H](C2CCCC2)N(C)C(=O)C2(CCCC2)NC(=O)[C@@H]2CCCN2C(=O)[C@H](CCc2ccc(C(F)(F)F)c(Cl)c2)NC(=O)CN(C)C(=O)[C@H](Cc2ccc(F)cc2)N2CCCCC[C@@H](C2=O)N(C)C(=O)CN(C)C1=O [PP0962]	B (a compound having 3 or more and less than 10 is denoted as B)	7.08	B (a compound having 3 or more and less than 10 is denoted as B)	9.19
CC[C@H](C)[C@@H]1NC(=O)[C@H](Cc2cccc(Cl)c2)N(C)C(=O)C[C@@H](C(=O)N2CCOCC2)N(C)C(=O)[C@H](C2CCCC2)N(C)C(=O)C2(CCCC2)NC(=O)[C@@H]2CCCN2C(=O)[C@H](CCc2ccc(C(F)(F)F)c(Cl)c2)NC(=O)CN(C)C(=O)[C@H](Cc2ccc(F)cc2)N2CCCCC[C@@H](C2=O)N(C)C(=O)CN(C)C1=O [PP0963]	B (a compound having 3 or more and less than 10 is denoted as B)	7.00	B (a compound having 3 or more and less than 10 is denoted as B)	9.11
